Data set [1] can be described thus: pKa assessment of testosterone. The note with it: from molecular structure.
A short description of data set [2]: Solubility of testosterone in water, solvents and oils. The settings on record: maximum.

This is an account of results in patent US11090312B2, “Methods of treating hypogonadism with transnasal testerosterone bio-adhesive gel formulations in male with allergic rhinitis, and methods for preventing an allergic rhinitis event” (Acerus Biopharma Inc., priority 2013, dated 2021).

With `C[C@]12CC[C@H]3[C@@H](CCC4=CC(=O)CC[C@@]43C)[C@@H]1CC[C@@H]2O` [Testosterone, 17β-Hydroxyandrost-4-en-3-one], the pKa entry in data set [1] is “no pKa value in the range 1-14”. Also, in data set [2], the “Solubility in castor oil pure” value is listed as at most 3.6%.
